Values of other authors as cited in US20150045288A1, “COMPOSITION” (priority 2012, published 2015).
Read-outs that look alike come from different tables or passages of the source.

Details: 50% ethanol solution

difficidin
t90 (time at which 90% of the inhibitory substance remains as tested by HPLC) (pH 3.5, room temperature): 2 h
t90 (time at which 90% of the inhibitory substance remains as tested by HPLC) (pH 11, room temperature): 17 h
